# Starred links: 1 amine or outer side, 2 acyl side, 3 side chain; linkers in the order of their positions; H or OH if unused. Positions of bridges follow the written chain, without caps; N, C: chain ends. Non-standard residues stand in square brackets, D forms with d. Residues, ends and D or L forms follow the SMILES beside them. Chains are numbered I, II in the order given. Actinocin(9to1) = Cc1c2oc3c(C)ccc(C(=O)[*:1])c3nc-2c(C(=O)[*:2])c(N)c1=O; NMeV = CN[C@H](C(=O)O)C(C)C; Sar = CNCC(=O)O
# Legend:
# Type in all cases: cell-based, human
# [1] = system: intracellular Ca2+ mobilization in MCF-7 cells; experiment: Measurement of [Ca2+]i in Fluo-3 loaded MCF-7 cells; details: for effect on E2-induced rise of [Ca2+]i: pretreatment then E2 (DMS 10 μM 30 min; ICI 10 μM; BHQ 100 nM; EGTA 2 mM; 2-APB 75 μM); for effect on [Ca2+]i when added alone: S1P 100 nM, E2-BSA 1 μM
# Description: The fluorescence of the cells was monitored at an excitation wavelength of 490 nm and an emission wavelength of 525 nm. Each recording was calibrated by determining the maximal uptake of calcium (Fmax) in the presence of 0.1% Triton X as well as the level of autofluorescence (Fmin), after quenching Fluo-3/AM fluorescence with 1 mM Mn2^+.
# [2] = system: SK activity in MCF-7 cells; experiment: SK activity assay in MCF-7 cells; details: for effect on E2-mediated SK activation: pretreatment (ICI 10 μM 1 h; PTX 50 ng/ml 16 h) then 10 nM E2
# Description: (§1) Briefly, after desired treatments the cells were washed with ice-cold PBS, scraped from the culture dishes and homogenized in lysis buffer containing 20 mM Tris (pH 7.4), 20% glycerol, 1 mM DTT, 1 mM EDTA, 10 μM MgCl2, 1 mM Na3VO4, 15 mM NaF, 10 μg/ml leupeptin and aprotinin, 1 mM PMSF and 0.5 mM 4-deoxypyridoxine. After centrifugation at 13,000×g for 30 min, SK activity was measured by incubating the cytosolic fraction with 5 μM sphingosine dissolved in 0.1% Triton X-100 and [γ^32P]ATP (1 mM, 0.5 mCi/ml) for 30 min at 37° C. as described previously (Pitson et al, 2000, supra; Xia, P., 1998, supra). The enzyme activity was normalized by total protein concentration of each sample.
# [3] = system: SK activity in MDA-MB-231 cells; experiment: SK activity assay in MDA-MB-231 cells; details: 10 nM E2, 15 min or 6 hours
# Description: as §1
# [4] = system: Erk1/2 phosphorylation in MCF-7 cells; experiment: Erk1/2 phosphorylation by Western blotting in MCF-7 cells
# Description: Cells were harvested and lysed by sonication in lysis buffer containing 50 mM Tris/HCl (pH 7.4), 10% glycerol, 0.5% Triton-X-100, 150 mM NaCl, 1 mM dithiothreitol, 2 mM Na3VO4, 10 mM NaF, 1 mM EDTA and protease inhibitors (Complete; Roche Molecular Biochemicals). Protein concentrations of the cell lysates were determined with a Bio-Rad Dc protein assay kit (Bio-Rad Laboratories, CA). Aliquots of cell lysates containing 30-50 μg of proteins were resolved by 12% SDS-PAGE and transferred to Hybond-P membranes (Amersham Biosciences, Inc.). The membranes were then probed with appropriate antibodies according to standard method as described previously (Pitson, S. M., 2000, supra). The immunocomplexes were detected with an enhanced chemiluminescence PLUS kit (Amersham Pharmacia Biosciences) and by using Typhoon 9410 Variable Mode Imager (Amersham Pharmacia Biotechnologies).
# MCF-7 cells [5] = experiment: Cell growth assay (MTS) in MCF-7 cells; details: 10 nM E2, in the absence of serum
# Description: To assess cell proliferation, we used the CellTiter 96 AQueous proliferation assay (Promega Corp.) that is based on metabolic conversion of a tetrazolium compound MTS to a colored product by living cells as described in the manufacturer's protocols. Cells (4×10^3 cell/well) were seeded in 4 to 6 replicates into 96-well plates and incubated at 37° C. in 5% CO2 with or without E2 (10 nM) in phenol-red free media for a desired time period. The medium was changed every 2-3 days. The absorbance intensity of the MTS product is directly proportional to the number of viable cells in culture when cell number is between 2000 and 200 000, otherwise the exponential dependence was determined. Total cell numbers were calculated based on calibration curves.
# MCF-7 cells [6] = experiment: Focus formation assay in MCF-7 cells; details: 10 nM E2, 10-day culture
# Description: MCF-7 cells were seeded into 24-well plastic tissue culture plates at a density of 1×10^5 cells/ml/well, and maintained in phenol-red free media containing 10% FCS until the cells reached confluent. The cells were then refed at 24 h before first treatment with or without 10 nM E2 and then every 2-3 days thereafter with 1% FCS medium. After 5, 10 and 14 days the cultures were photographed and number of foci were counted. For colony assay, cells (1×10^4) suspended in 2 ml of 0.36% agar (Becton Dickinson, Sparks, MD) with phenol-red free growth medium were added on a base layer of 0.72% agar containing culture medium as described previously (Xia, P., Gamble, J. R., Wang, L., Pitson, S. M., Moretti, P. A., Wattenberg, B. W., D'andrea, R. J., and Vadas, M. A. (2000) Curr. Biol., 10: 1527-1530). After 14 days of incubation, the colonies were stained with MTT and counted. All experiments were done at least three times using triplicates per experimental point. Average was assessed by counting the number of colonies under low magnification (×20) at four points on each well.
compound,measurement,setting,value
O=C(O)CN(CCOCCOCCN(CC(=O)O)CC(=O)O)CC(=O)O [EGTA],effect on E2-induced rise of [Ca2+]i,[1],slightly decreased
17β-estrodiol [E2],SK activity after additional dose of E2,"[2]; MCF-7 cells pretreated with E2 for 16 h, pulsed with additional 10 nM E2",additive increase
same,prolonged effect on SK activity,"[2]; MCF-7 cells, 10 nM E2, after 6 hours, remained more than 24 hours",significant increase
same,maximum SK activity,"[2]; MCF-7 cells, 10 nM E2, within 15 min",240±25 % of basal
same,concentration at which the E2-induced SK activity reaches a maximum,"[2]; MCF-7 cells, increasing doses, 15 min",1 µM
same,SK activity,[3],No increased activity
same,time to maximal level of [Ca2+]i,[1]; E2 1 nM,30 ± 10 s
same,effect on Erk 1/2 activity,[4]; 10 nM E2,significant increase
same,time of maximal Erk 1/2 activity,"[4]; 10 nM E2, basal levels by 60 min",≤ 15 min
same,effect on cell growth,MCF-7 cells [5],stimulated cell growth
same,foci formation,MCF-7 cells [6],able to form solid cell foci
"Cc1c2oc3c(C)ccc(C(=O)N[C@@H]4C(=O)N[C@H](C(C)C)C(=O)N5CCC[C@H]5C(=O)N(C)CC(=O)N(C)[C@@H](C(C)C)C(=O)O[C@@H]4C)c3nc-2c(C(=O)N[C@@H]2C(=O)N[C@H](C(C)C)C(=O)N3CCC[C@H]3C(=O)N(C)CC(=O)N(C)[C@@H](C(C)C)C(=O)O[C@@H]2C)c(N)c1=O [actinomycin D] (I: T[dV]P[Sar][NMeV] / II: T[dV]P[Sar][NMeV]; ester I:1-I:C, II:1-II:C; linker I:N-II:N via Actinocin(9to1))",effect on first peak of E2-induced SK activity,"[2]; MCF-7 cells, 1 μM actinomycin D pretreatment 4 h, 10 nM E2",no overt effect
same,effect on delayed E2-induced activation of SK,"[2]; MCF-7 cells, 1 μM actinomycin D, 10 nM E2 prolonged time course",abrogated
pertussis toxin,effect on E2-mediated SK activation,[2]; MCF-7 cells,strongly abrogated
CC/C(=C(\c1ccccc1)c1ccc(OCCN(C)C)cc1)c1ccccc1 [Tamoxifen],effect on E2-mediated SK activation,[2]; MCF-7 cells,no influence
17β-estrodiol-BSA [E2-BSA],effect on [Ca2+]i when added alone,[1],same extent as E2
"NCCOB(c1ccccc1)c1ccccc1 [2-APB, 2-Aminoethoxydiphenyl borate]",effect on E2-induced rise of [Ca2+]i,[1],unable to effectively abolish
"CCCCCCCCCCCCC/C=C/[C@@H](O)[C@@H](N)COP(=O)(O)O [S1P, sphingosine-1-phosphate]",effect on [Ca2+]i when added alone,[1],resulted in an increase
COc1cccc(-c2cc(=O)c3ccccc3o2)c1N [PD098095],effect on E2-promoted phosphorylation of Erk1/2,"[4]; 100 μM pretreatment 30 min, 10 nM E2",blocked
4-hydroxytamoxifen [OH-Tam],effect on E2-induced rise of [Ca2+]i,[1],not prevented
"C[C@]12CC[C@@H]3c4ccc(O)cc4C[C@@H](CCCCCCCCC[S+]([O-])CCCC(F)(F)C(F)(F)F)[C@H]3[C@@H]1CC[C@@H]2O (stereo partly drawn) [ICI 182,780]",effect on E2-mediated SK activation,[2]; MCF-7 cells,no influence
same,effect on E2-induced rise of [Ca2+]i,[1],not prevented
"CCCCCCCCCCCCCC(=O)O[C@@H]1[C@@H](C)[C@@]2(O)[C@@H](C=C(CO)C[C@]3(O)C(=O)C(C)=C[C@@H]23)[C@@H]2C(C)(C)[C@]12OC(C)=O [PMA, phorbol 12-myristate 13-acetate]",increase in SK activity over basal levels,"[2]; PMA 100 ng/ml, 30 min, SK and empty-vector transfected MCF-7 cells",approximately 2 fold
"CC(C)(C)c1cc(O)ccc1O [BHQ, tert-butylhydroquinone]",effect on E2-induced rise of [Ca2+]i,[1],strongly reduced

# — US20050009732A1, “Method of treatment and agents useful for same” (Medvet Science Pty Ltd., priority 2003, published 2005)
